In patent US20240239818A1, “COMPOUNDS AND COMPOSITIONS COMPRISING FLUOROPHORES FOR USE IN VISUALIZATION AND PURIFICATION OR MANIPULATION” (priority 2022, published 2024):

Key:
[1] = Determination of lactone-zwitterion equilibrium constant (KL-Z); assay type: physicochemical; conditions: 1:1 (v/v) dioxane:water
Protocol: Determination of KL-Z. The lactone-zwitterion equilibrium constant (KL-Z) was calculated as described previously^13, 23, 32, 45 using equation 1: […]
where εdw is the extinction coefficient of the dyes in a 1:1 (v/v) dioxane:water solvent mixture containing 0.01% (v/v) triethylamine; this dioxane water mixture was chosen to give a large range of KL-Z values,^23 and the triethylamine additive ensures the rhodamines are in the net neutral form. The εmax is the maximal extinction coefficient, measured in 0.1% (v/v) trifluoroacetic acid in 2,2,2-trifluoroethanol (TFE).

[2] = test system: HaloTag®-histone H2B fusion protein; assay type: cell-based; conditions: for time to reach saturation of labeling: 200 nM, live U2OS cells expressing HaloTag®-H2B, 0-4 h
Protocol: Dye loading kinetics. Live U2OS.H2B.HaloTag® stable cells were labeled over a time course of 0-4 h with 200 nM of biotin-JF549-HaloTag® ligand (12), biotin-JF608-HaloTag® ligand (13), biotin-JF646-HaloTag® ligand (14), or biotin-JF635-HaloTag® ligand (15) at 37° C. Cells were then washed 3× with dye-free media, fixed with 4% paraformaldehyde in 0.1 M phosphate buffer, pH 7.4 for 15 min at 37° C. Confocal imaging was performed on a Leica SP8 with an HC PL APO CS2 20×/0.75 immersion objective using the tunable white light laser (WLL) to excite dyes at their λabs in constant power mode. Fluorescence was quantified as the average integrated density of background corrected nuclear signals from confocal image stack projections analyzed in FIJI; n=100 nuclear signals per compound.

[3] = biological target: T1, msGFP-HaloTag® fusion protein (mitochondria) from HEK293T cells (Rhodococcus rhodochrous, UniProt P0A3G2, A155T/A167V/A172T/A224E/C128F/C176G/D78G/E160K/E257K/H272N/K175M/K195N/L47V/L88M/N227D/S58T/T264A/Y273L/Y87F); test: Affinity capture (streptavidin microbeads) and in-gel fluorescence; assay type: cell-based; conditions: for capture efficiency: mean±SEM, n=3, streptavidin beads; for affinity capture (protein bound to streptavidin): streptavidin beads
T1 construct: and (4) HaloTag®; expressed in transfected cells; host or cells: HEK293T, calcium phosphate transfection
Protocol: Affinity capture and in-gel fluorescence experiments. Affinity capture pulldown isolation experiments of biotin-labeled HaloTag® fusion proteins were performed on ice-cold isolation buffer (IB) consisting of KCl (0.18 M), ethylene glycol-bis(β-aminoethyl ether)-N,N,N′,N′-tetraacetic acid (EGTA; 1 mM), 3-(N-morpholino)propanesulfonic acid (MOPS; 5 mM); the pH was adjusted to pH=7.35 using KOH(aq).^51 HEK293T cells were scraped with 500 μL IB and homogenized using 12 strokes with a 27G syringe. The resulting homogenate was spun at 4° C. at 1000 g for 3 min to pellet large cellular debris. 50 μL of streptavidin-coated microbeads (Miltenyi, 130-048-101) were added to the supernatant and incubated for 30 min at 4° C. with slow rotation. LS columns (Miltenyi, 130-042-401) were prepared by first washing with 3 mL IB consisting of 2.5% bovine serum albumin (BSA; Jackson ImmunoResearch, 001-000-162) and then with plain IB (3×). Prior to supernatant-microbead mixture being loaded onto LS columns, 5% volume was taken for downstream total fraction calculations (i.e., the “total/20” sample). Columns and samples were kept at 4° C. (cold room) while samples were loaded onto columns and washed with IB (3×); this fraction was collected as designated as “wash”. After the washing step, the column was removed from the QuadroMACs magnet holder (Miltenyi, 130-092-857) and eluted with gentle plunge action into an Eppendorf tube; this was labeled as “eluate”. From here, there were three fractions for each condition: total/20, wash (unbound), and eluate (bound). Since mitochondria were being isolated, these samples were spun at 4° C. and 20,000 g to pellet mitochondria. These samples were then solubilized using the lysis buffer containing 1×PBS, 2% SDS, 1% Triton x-100, 10 mM EDTA, and protease inhibitors (2 mM PMSF, aprotinin, leupeptin, and pepstatin A). Samples were then incubated at 72° C. for 3-4 min after the addition of sample buffer (SB) (DTT, glycerol, and bromophenol blue). For protein detection, 10-20 μL of the sample was subjected to sodium dodecyl sulfate-polyacrylamide gel electrophoresis (SDS-PAGE), using 13% gels. The affinity capture pulldown efficiency was monitored using in-gel fluorescence. The msGFP signal from HaloTag®-TEV-4×GS-msGFP-mito after cell lysis and SDS-PAGE was analyzed, in-gel, using a BioRad Chemidoc MP imager (BioRad) through GFP fluorescence excitation and emission filters. Data were quantified by densitometry using Fiji.^52 Capture efficiency was calculated using equation 3:
[formula] • where Ieluate is the in-gel fluorescence intensity of the bead-bound fraction and Itotal/20 is the in-gel fluorescence intensity of the 5% of crude sample reserved for concentration control (i.e., the “total/20” sample).
Evaluation of biotin-HaloTag® ligand. A live cell permeable biotin reagent was saught for affinity pulldown of HaloTag® fusion proteins, given the broad utility of biotin conjugates in biochemistry and cell biology. To evaluate the performance of biotin-containing HaloTag® ligand, an assay was developed (FIG. 3A) where the HaloTag® is expressed as a fusion with monomeric superfolder green fluorescent protein (msGFP); the construct also included an OMP25 sequence to localize the fusion protein to the outer mitochondrial membrane, allowing straightforward imaging and affinity capture experiments.^28-29 HEK293T cells expressing this fusion protein were incubated with biotin-containing HaloTag® ligands followed by washing and cell lysis. The crude supernatant was incubated with streptavidin-coated magnetic microbeads, applied to a magnetic column, and washed. The magnet was removed, and the bead-bound mitochondria were eluted, lysed, and the resulting solution was analyzed by sodium dodecyl sulfate-polyacrylamide gel electrophoresis (SDS-PAGE) and in-gel fluorescence. To minimize dilution of the sample only the initial bead-bound fraction was collected, leaving some material on the column. […]

T1 sequence (P0A3G2 other isoform, or with tags, fused parts or gaps with the stated changes): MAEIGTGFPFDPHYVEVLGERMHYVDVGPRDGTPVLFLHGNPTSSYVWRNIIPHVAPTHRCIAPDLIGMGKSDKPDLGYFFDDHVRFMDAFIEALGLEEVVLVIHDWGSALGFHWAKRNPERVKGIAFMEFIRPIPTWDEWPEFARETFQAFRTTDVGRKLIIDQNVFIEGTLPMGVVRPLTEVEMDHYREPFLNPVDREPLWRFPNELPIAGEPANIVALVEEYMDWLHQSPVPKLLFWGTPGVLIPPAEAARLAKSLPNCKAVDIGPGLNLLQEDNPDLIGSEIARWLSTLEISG

Row | Molecule | KL-Z [1] | time to reach saturation of labeling [2] | capture efficiency [3] | affinity capture (protein bound to streptavidin) [3] | membrane permeability [2]
1 | C[Si]1(C)C2=CC(=[N+]3CC(C(=O)NCCOCCOCCNC(=O)CCCC[C@@H]4SC[C@@H]5NC(=O)N[C@@H]54)C3)C=CC2=C(c2cc(C(=O)NCCOCCOCCCCCCCl)ccc2C(=O)[O-])c2ccc(N3CCC3)cc21 (stereo partly drawn) [compound 14, Biotin-JF646-HaloTag® ligand] | 0.0086 | approximately 1 h | 44.8±2.8% | efficient affinity capture | –
2 | Biotin-JF549-HaloTag® ligand [compound 12] | 5.9 | – | – | – | negligible membrane permeability
3 | C[Si]1(C)c2cc(N3CC(F)C3)ccc2C2(OC(=O)c3ccc(C(=O)NCCOCCOCCCCCCCl)cc32)c2ccc(N3CC(F)C3)cc21 [5HTL, JF635-HaloTag® ligand, reference compound] | 0.0048 | – | – | no appreciable protein capture | –
4 | C[Si]1(C)C2=CC(=[N+]3CC(F)(C(=O)NCCOCCOCCNC(=O)CCCC[C@@H]4SC[C@@H]5NC(=O)N[C@@H]54)C3)C=CC2=C(c2cc(C(=O)NCCOCCOCCCCCCCl)ccc2C(=O)[O-])c2ccc(N3CC(F)C3)cc21 (stereo partly drawn) [compound 15, Biotin-JF635-HaloTag® ligand] | 0.0032 | approximately 1 h | 43.4±2.3% | efficient affinity capture | –
